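Briefly, cells in 96-well plates were exposed to five compound concentrations for 48 h, and endpoints were estimated by linear interpolation. GI50 is the concentration that inhibits growth by half. TGI: concentration producing complete growth inhibition.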
Columns and labels:
Experiment in all cases: growth of human tumour cells (NCI), 48 h
786-0 renal = system: 786-0 renal
A549 NSCLC = system: A549 NSCLC
SF-539 CNS = system: SF-539 CNS
CCRF-CEM leukemia = system: CCRF-CEM leukemia
SR leukemia = system: SR leukemia
UACC-62 melanoma = system: UACC-62 melanoma
SW-620 colon = system: SW-620 colon
HT29 colon = system: HT29 colon
HS 578T breast = system: HS 578T breast
HCT-116 colon = system: HCT-116 colon
K-562 leukemia = system: K-562 leukemia
M14 melanoma = system: M14 melanoma
MDA-MB-435 = system: MDA-MB-435
DU-145 prostate = system: DU-145 prostate
OVCAR-4 ovarian = system: OVCAR-4 ovarian
SNB-19 CNS = system: SNB-19 CNS
MCF7 breast = system: MCF7 breast
RXF 393 renal = system: RXF 393 renal
UO-31 renal = system: UO-31 renal
NCI-H522 lung = system: NCI-H522 lung
HOP-62 NSCLC = system: HOP-62 NSCLC
KM12 colon = system: KM12 colon
SK-OV-3 ovarian = system: SK-OV-3 ovarian
U251 CNS = system: U251 CNS
SK-MEL-2 melanoma = system: SK-MEL-2 melanoma
SN12C renal = system: SN12C renal
MDA-MB-231 breast = system: MDA-MB-231 breast
RPMI-8226 leukemia = system: RPMI-8226 leukemia
BT-549 breast = system: BT-549 breast
SK-MEL-5 melanoma = system: SK-MEL-5 melanoma
T-47D breast = system: T-47D breast
IGROV1 ovarian = system: IGROV1 ovarian
HCT-15 colon = system: HCT-15 colon
UACC-257 melanoma = system: UACC-257 melanoma
SF-268 CNS = system: SF-268 CNS
NCI-H23 lung = system: NCI-H23 lung
CAKI-1 renal = system: CAKI-1 renal
SK-MEL-28 melanoma = system: SK-MEL-28 melanoma
PC-3 prostate = system: PC-3 prostate
A498 renal = system: A498 renal
OVCAR-3 ovarian = system: OVCAR-3 ovarian
ACHN renal = system: ACHN renal
SF-295 CNS = system: SF-295 CNS
SNB-75 CNS = system: SNB-75 CNS
MOLT-4 leukemia = system: MOLT-4 leukemia
HCC-2998 colon = system: HCC-2998 colon
HL-60(TB) leukemia = system: HL-60(TB) leukemia
NCI/ADR-RES ovarian = system: NCI/ADR-RES ovarian
COLO 205 colon = system: COLO 205 colon
EKVX NSCLC = system: EKVX NSCLC
LOX IMVI melanoma = system: LOX IMVI melanoma
TK-10 renal = system: TK-10 renal
OVCAR-8 ovarian = system: OVCAR-8 ovarian
HOP-92 NSCLC = system: HOP-92 NSCLC
NCI-H460 lung = system: NCI-H460 lung
OVCAR-5 ovarian = system: OVCAR-5 ovarian
NCI-H226 lung = system: NCI-H226 lung

## COc1ccc(/C=N/Nc2nc(N)nc(N3CCCC3)c2C#N)cc1
786-0 renal
  GI50: 16.2 µM
  TGI: 31.2 µM
A549 NSCLC
  GI50: 13.4 µM
  TGI: 50.8 µM
SF-539 CNS
  GI50: 6.5 µM
  TGI: 21.8 µM
CCRF-CEM leukemia
  GI50: 17.2 µM
  TGI: 49.2 µM
SR leukemia
  GI50: 7.72 µM
  TGI: 27.5 µM
UACC-62 melanoma
  GI50: 18.9 µM
  TGI: 38.4 µM
SW-620 colon
  GI50: 30.4 µM
  TGI: > 100 µM
HT29 colon
  GI50: 34.7 µM
  TGI: > 100 µM
HS 578T breast
  GI50: 13 µM
  TGI: 34 µM
HCT-116 colon
  GI50: 5.89 µM
  TGI: 22.5 µM
K-562 leukemia
  GI50: 13 µM
  TGI: 28.7 µM
M14 melanoma
  GI50: 17 µM
  TGI: 36.5 µM
MDA-MB-435
  GI50: 24.1 µM
  TGI: 64.6 µM
DU-145 prostate
  GI50: 11.8 µM
  TGI: 32 µM
OVCAR-4 ovarian
  GI50: 23.3 µM
  TGI: 47.4 µM
SNB-19 CNS
  GI50: 25.7 µM
  TGI: 72.5 µM
MCF7 breast
  GI50: 15.3 µM
  TGI: 47.8 µM
RXF 393 renal
  GI50: 10.2 µM
  TGI: 31.1 µM
UO-31 renal
  GI50: 20.6 µM
  TGI: 38.1 µM
NCI-H522 lung
  GI50: 21.9 µM
  TGI: 47.7 µM
HOP-62 NSCLC
  GI50: 20.2 µM
  TGI: 40.9 µM
KM12 colon
  GI50: 24.8 µM
  TGI: 70.8 µM
SK-OV-3 ovarian
  GI50: 27.1 µM
  TGI: 73.3 µM
U251 CNS
  GI50: 17.6 µM
  TGI: 45.2 µM
SK-MEL-2 melanoma
  GI50: 21.4 µM
  TGI: 46.1 µM
SN12C renal
  GI50: 18.6 µM
  TGI: 35.8 µM
MDA-MB-231 breast
  GI50: 12.2 µM
  TGI: 32.9 µM
RPMI-8226 leukemia
  GI50: 14.1 µM
  TGI: 39 µM
BT-549 breast
  GI50: 19.1 µM
  TGI: 46.3 µM
SK-MEL-5 melanoma
  GI50: 19.3 µM
  TGI: 39 µM
T-47D breast
  GI50: 31.2 µM
  TGI: 89.4 µM
IGROV1 ovarian
  GI50: 21 µM
  TGI: 44.4 µM
HCT-15 colon
  GI50: 17.2 µM
  TGI: 47.2 µM
UACC-257 melanoma
  GI50: 21.6 µM
  TGI: 44.7 µM
SF-268 CNS
  GI50: 17.7 µM
  TGI: 42 µM
NCI-H23 lung
  GI50: 20.5 µM
  TGI: 48.1 µM
CAKI-1 renal
  GI50: 20.9 µM
  TGI: 40.3 µM
SK-MEL-28 melanoma
  GI50: 30.3 µM
  TGI: 78.2 µM
PC-3 prostate
  GI50: 14.7 µM
  TGI: 32.2 µM
A498 renal
  GI50: 12.9 µM
  TGI: 28.1 µM
OVCAR-3 ovarian
  GI50: 21.5 µM
  TGI: 40.2 µM
ACHN renal
  GI50: 17.4 µM
  TGI: 34.5 µM
SF-295 CNS
  GI50: 16.8 µM
  TGI: 36 µM
SNB-75 CNS
  GI50: 23.6 µM
  TGI: 51.8 µM
MOLT-4 leukemia
  GI50: 17.8 µM
  TGI: 58.9 µM
HCC-2998 colon
  GI50: 8.59 µM
  TGI: 26.1 µM
HL-60(TB) leukemia
  GI50: 28.2 µM
  TGI: 86.6 µM
NCI/ADR-RES ovarian
  GI50: 14.1 µM
  TGI: 40.2 µM
COLO 205 colon
  GI50: 37.1 µM
  TGI: > 100 µM
EKVX NSCLC
  GI50: 25.9 µM
  TGI: 60.3 µM
LOX IMVI melanoma
  GI50: 7.39 µM
  TGI: > 100 µM
TK-10 renal
  GI50: 19.4 µM
  TGI: 39.9 µM
OVCAR-8 ovarian
  GI50: 7.82 µM
  TGI: 47.2 µM
HOP-92 NSCLC
  GI50: 17.8 µM
  TGI: 36.4 µM
NCI-H460 lung
  GI50: 16.4 µM
  TGI: 46.7 µM
OVCAR-5 ovarian
  GI50: 24.3 µM
  TGI: 47 µM
NCI-H226 lung
  GI50: 12.4 µM
  TGI: 30.6 µM

Reference: PubChem BioAssay (NCI)
